pIC50: −log10 of the molar value. Where a name gives a salt, the structure may show the parent alone. Read-outs that look alike come from different tables or passages of the source.
Key:
[1] = system: HCV subgenomic replicon in Huh-7 cells; test: Replicon assay, EC50 luciferase readout; format: cell-based, hepatitis C virus (HCV); settings: Hepatitis C virus, Huh-7, 72 h, single value, or second value of a pair x:y
In short: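 Huh-7 cells carrying a subgenomic HCV replicon (NS3-NS5b, firefly luciferase-neo fusion) were treated with compound for 72 h at 37°C, 5% CO2. EC50 derived from Bright-Glo luciferase signal as a proxy for HCV RNA; cell viability measured in parallel by Alamar blue.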

[2] = molecular target: T1, HCV NS3 protease (full length NS34a) (Hepatitis C virus genotype 1b, UniProt P26663); test: HCV NS3 protease assay (FRET, full length NS34a); format: biochemical
T1 construct: The protease activity of the full length NS34a was measured using a FRET-based assay; made in house
In short: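 FRET readout over 30 minutes at room temperature, with IC50 fitted to initial rates from replicate curves. Enzyme was full-length NS34a; substrate a peptide from the NS4AB cleavage site labelled with QXL520 and 5-FAMsp; buffer 50 mM Tris pH8 containing 20 mM DTT, 1% CHAPS, 10% glycerol and 5% DMSO.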

[3] = Huh-7 replicon cells, 72 h, read-out: Activity EC50 (μM) (EC50 luciferase readout)
[4] = protease activity of full length NS34a, FRET peptide substrate, read-out: Activity IC50
[5] = IC50 values of 10-150 μM against the protease activity of the full length NS34a, or at least 40% inhibition of protease activity at a concentration of 100 μM

T1 sequence (P26663 1658-1711): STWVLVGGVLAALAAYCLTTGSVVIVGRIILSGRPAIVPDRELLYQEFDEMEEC
T1 sequence (P26663 1027-1657): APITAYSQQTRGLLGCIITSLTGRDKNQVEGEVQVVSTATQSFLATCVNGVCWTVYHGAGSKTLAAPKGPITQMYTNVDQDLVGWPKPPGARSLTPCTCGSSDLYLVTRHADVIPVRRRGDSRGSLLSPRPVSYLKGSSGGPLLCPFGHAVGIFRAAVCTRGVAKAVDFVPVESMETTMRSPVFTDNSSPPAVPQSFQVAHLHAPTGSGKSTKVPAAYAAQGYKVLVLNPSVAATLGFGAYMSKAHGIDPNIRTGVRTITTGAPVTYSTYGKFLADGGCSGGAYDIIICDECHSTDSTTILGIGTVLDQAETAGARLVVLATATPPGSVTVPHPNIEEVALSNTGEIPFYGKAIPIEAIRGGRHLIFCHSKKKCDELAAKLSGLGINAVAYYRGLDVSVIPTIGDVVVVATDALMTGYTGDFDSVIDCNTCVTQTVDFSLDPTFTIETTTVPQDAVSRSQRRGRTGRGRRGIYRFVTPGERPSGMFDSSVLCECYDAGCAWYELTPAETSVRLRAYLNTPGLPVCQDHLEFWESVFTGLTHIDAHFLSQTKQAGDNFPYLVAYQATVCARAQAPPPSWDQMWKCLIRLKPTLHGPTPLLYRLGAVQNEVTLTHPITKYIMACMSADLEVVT

| SMILES | EC50 [1, 3] [µM] | pIC50 [2, 4] | EC50 ([1]; read-out: Activity EC50 (μM) (EC50 luciferase readout), Huh-7 replicon cells, 72 h) [µM] | pIC50 [2, 5] | inhibition at 0.03 µM ([2]; read-out: Activity % inhibition @ 0.03 μM, 0.03 μM compound) [%] |
| --- | --- | --- | --- | --- | --- |
| Cc1cc(Oc2c(F)ccc(CN[C@H]3CC[C@H](N)CC3)c2F)ccc1N [Example 287] | 6.5 | 6.36 |  |  |  |
| CS(=O)(=O)Nc1cccc(Oc2c(F)ccc(CN[C@H]3CC[C@H](N)CC3)c2F)c1 [Example 284] | > 10 | 5.85 |  |  |  |
| CC[C@@H](N[C@@H](C)CC(=O)N[C@H](C)CO)c1ccc(Cl)c(Oc2ccccc2)c1F [Example 207] |  | 6.68 | > 10 |  |  |
| CC[C@@H](NCCC(N)=O)c1ccc(Cl)c(Oc2ccccc2)c1F [Example 97, 3-[(R)-1-(4-Chloro-2-fluoro-3-phenoxy-phenyl)-propylamino]-propionamide.hydrochloride] | > 10 | 6.08 |  |  |  |
| CCC[C@@H](N)c1ccc(Cl)c(Oc2ccccc2)c1F [Example 118] | 4.4 | 5.77 |  |  |  |
| N[C@H](c1ccc(F)c(Oc2ccccc2)c1F)[C@@H]1CCCNC1 [Example 59B, C-(2,4-Difluoro-3-phenoxy-phenyl)-C-piperidin-3-yl-methylamine. dihydrochloride] | 3 | 5.68 |  |  |  |
| C[C@H](CC(N)=O)N[C@H](CC1CCNCC1)c1ccc(F)c(Oc2ccccc2)c1F [Example 85] | 18 |  |  | 3.82 to 5.00 |  |
| CC[C@H](Nc1cccc2c1CNCC2)c1ccc(F)c(Oc2ccccc2)c1F [Example 137] | 7.8 | 6.35 |  |  |  |
| CC[C@H](N[C@@H](C)CC(N)=O)c1ccc(Cl)c(Oc2ccccc2)c1F [Example 79, (S)-3-[(S)-1-(4-Chloro-2-fluoro-3-phenoxy-phenyl)-propylamino]-butyramide.hydrochloride] | > 10 | 6.51 |  |  |  |
| CC[C@@H](N[C@H](C)CC(=O)NCCN(C)C)c1ccc(Cl)c(Oc2ccccc2)c1F [Example 242] | 0.89 | 5.41 |  |  |  |
| CC[C@@H](Nc1ncc(CN)cn1)c1ccc(Cl)c(Oc2ccccc2)c1F [Example 8, (5-Aminomethyl-pyrimidin-2-yl)-[(R)-1-(4-chloro-2-fluoro-3-phenoxy-phenyl)-propyl]-amine hydrochloride] | 10 | 6.48 |  |  |  |
| NC(C1=NCCN1)c1ccc(F)c(Oc2ccccc2)c1F (stereo not shown) [Example 50, C-(2,4-Difluoro-3-phenoxy-phenyl)-C-(4,5-dihydro-1H-imidazol-2-yl)-methylamine.dihydrobromide] | 23 |  |  | 3.82 to 5.00 |  |
| CC[C@@H](N[C@H](C)CC(N)=O)c1ccc(Cl)c(Oc2ccc(N)nc2)c1F [Example 123] | 4.7 | 5.80 |  |  |  |
| CC[C@H](N[C@@H](C)CO)c1ccc(F)c(Oc2ccccc2)c1F [Example 64] | 18 | 6.37 |  |  |  |
| CC[C@@H](N[C@@H](C)CC(=O)N[C@@H](C)CN)c1ccc(Cl)c(Oc2ccccc2)c1F [Example 251] | 1.8 | 7.21 |  |  |  |
| CC[C@@H](N[C@H](CC(N)=O)C(C)C)c1ccc(Cl)c(Oc2ccccc2)c1F [Example 143] | 6.2 | 6.27 |  |  |  |
| CCC(NCCO)c1ccc(F)c(Oc2ccccc2)c1F (stereo not shown) [Example 45, 2-[1-(2,4-Difluoro-3-phenoxy-phenyl)-propylamino]-ethanol. hydrochloride] | 9.1 | 5.77 |  |  |  |
| N[C@H]1CC[C@@H](NCc2ccc(F)c(Oc3ccccc3)c2F)CC1 [Example 283] | 0.27 | 6.12 |  |  |  |
| CC[C@H](NCCC(=O)NCCO)c1ccc(F)c(Oc2ccccc2)c1F [Example 92, 3-[(S)-1-(2,4-Difluoro-3-phenoxy-phenyl)-propylamino]-N-(2-hydroxy-ethyl)-propionamide.hydrochloride] | > 30 | 6.04 |  |  |  |
| CC[C@@H](N[C@@H](C)CC(=O)NC(C)(C)CN)c1ccc(Cl)c(Oc2ccccc2)c1F [Example 252] | 0.88 | 5.72 |  |  |  |
| CC[C@@H](N)c1ccc(Cl)c(Oc2cccc(CO)c2)c1F [Example 115] | > 10 | 5.74 |  |  |  |

| SMILES | EC50 [1, 3] [µM] | pIC50 [2, 4] | EC50 ([1]; read-out: Activity EC50 (μM) (EC50 luciferase readout), Huh-7 replicon cells, 72 h) [µM] | pIC50 [2, 5] | inhibition at 0.03 µM ([2]; read-out: Activity % inhibition @ 0.03 μM, 0.03 μM compound) [%] |
| --- | --- | --- | --- | --- | --- |
| C[C@H](CC(=O)NCCN)NCc1ccc(Cl)c(Oc2ccccc2)c1F [Example 107, (R)—N-(2-Amino-ethyl)-3-(4-chloro-2-fluoro-3-phenoxy-benzylamino)-butyramide.dihydrochloride] | > 10 | 6.66 |  |  |  |
| CC[C@@H](N[C@@H](C)CC(N)=O)c1ccc(Cl)c(Oc2ccc(N)c(OC)c2)c1F [Example 255] | 0.012 | 6.64 |  |  |  |
| CC[C@@H](N[C@H](C)c1cc[nH]c1)c1ccc(Cl)c(Oc2ccccc2)c1F [Example 163, [(R)-1-(4-Chloro-2-fluoro-3-phenoxy-phenyl)-propyl]-1-[(R)-1-(1H-pyrrol-3-yl)-ethyl]-amine.dihydrochloride] | 0.94 | 5.60 |  |  |  |
| CC[C@@H](N[C@@H](C)CC(=O)NCC(N)=O)c1ccc(Cl)c(Oc2ccccc2)c1F [Example 178] | 8 | 5.66 |  |  |  |
| C[C@@H](CC(N)=O)N[C@@H](CC1CCNCC1)c1ccc(F)c(Oc2ccccc2)c1F [Example 98] | > 10 | 5.80 |  |  |  |
| CC[C@@H](N[C@@H](C)CC(N)=O)c1ccc(Cl)c(Oc2ccc(N)c(C(F)(F)F)c2)c1F [Example 260] | 0.043 | 6.77 |  |  |  |
| CCC(NC(C)c1c[nH]cn1)c1ccc(F)c(Oc2ccccc2)c1F (stereo not shown) [Example 67] | > 30 | 5.47 |  |  |  |
| C[C@@H](CO)N[C@H](CC1CCNCC1)c1ccc(F)c(Oc2ccccc2)c1F [Example 89] | 1.8 | 5.41 |  |  |  |
| CCC(N[C@H]1CC[C@@H](N)CC1)c1ccc(F)c(Oc2ccccc2)c1F (stereo partly drawn) [Example 6, cis-N-[1-(2,4-Difluoro-3-phenoxy-phenyl)-propyl]-cyclohexane-1,4-diamine dihydrochloride] | 0.14 |  |  | 3.82 to 5.00 |  |
| CC[C@@H](N[C@@H](C)CC(N)=O)c1ccc(Cl)c(Oc2cccc(NS(C)(=O)=O)c2)c1F [Example 196] | 0.27 | 6.38 |  |  |  |
| Cc1cc(Oc2c(F)ccc(CNc3ccncc3)c2F)ccc1N [Example 225B, [3-(4-Amino-3-methyl-phenoxy)-2,4-difluoro-benzyl]-pyridin-4-yl-amine. hydrochloride] | 0.68 | 6.14 |  |  |  |
| N[C@H](c1ccc(F)c(Oc2ccccc2)c1F)[C@H]1CCOC1 (relative stereo) [Example 61, C-(2,4-Difluoro-3-phenoxy-phenyl)-C-(tetrahydrofuran-3-yl)-methylamine.hydrochloride] | > 30 |  |  | 3.82 to 5.00 |  |
| CC[C@@H](N[C@@H](C)CC(=O)N[C@H]1CCNC1)c1ccc(Cl)c(Oc2ccccc2)c1F [Example 250] | 1 | 6.02 |  |  |  |
| N[C@H]1CC[C@H](CNCc2ccc(Cl)c(Oc3ccccc3)c2F)CC1 [Example 289] | 0.18 | 5.96 |  |  |  |
| CCC(NCC1CCNCC1)c1ccc(F)c(Oc2ccccc2)c1F (stereo not shown) [Example 29] | 0.47 | 5.36 |  |  |  |
| C#Cc1ccc(Oc2c(Cl)ccc([C@@H](CC)N[C@@H](C)CC(N)=O)c2F)cc1 [Example 230] | 0.48 | 6.77 |  |  |  |
| NC(c1ccc(=O)[nH]c1)c1ccc(F)c(Oc2ccccc2)c1F (stereo not shown) [Example 73, 5-[Amino-(2,4-difluoro-3-phenoxy-phenyl)-methyl]-1H-pyridin-2-one] | > 30 |  |  | 3.82 to 5.00 |  |
| CC[C@@H](N[C@@H](C)CC(=O)NC1CNC1)c1ccc(Cl)c(Oc2ccccc2)c1F [Example 234] | 7.3 |  |  |  | 57 |
| N[C@H](c1ccc(F)c(Oc2ccccc2)c1F)[C@H]1CCCNC1 [Example 60, C-(2,4-Difluoro-3-phenoxy-phenyl)-C-piperidin-3-yl-methylamine.dihydrochloride] | 3 |  |  | 3.82 to 5.00 |  |
| N[C@H]1CC[C@H](NCc2ccc(F)c(Oc3ccccc3)c2Cl)CC1 [Example 290] | 10 | 5.47 |  |  |  |

From patent US20140288040A1, “SUBSTITUTED BENZYLAMINE COMPOUNDS, THEIR USE IN MEDICINE, AND IN PARTICULAR THE TREATMENT OF HEPATITIS C VIRUS (HCV) INFECTION” (ASTEX THERAPEUTICS LIMITED, priority 2011, published 2014)
